The results in this text go back to patent publication US20110003820A1, “PYRAZOLOPYRIMIDINES, A PROCESS FOR THEIR PREPARATION AND THEIR USE AS MEDICINE” (MERZ PHARMA GMBH & CO. KGaA, priority 2008, published 2011).

Structures are written as SMILES. pIC50: −log10 of the molar value.

For one test, the target named is T1, mGluR5 receptors (Rattus norvegicus, UniProt P31424).
T1 construct: Primary astrocyte cultures are prepared from cortices of newborn rats; endogenous in cells; host or cells: primary cortical astrocytes of Sprague-Dawley rat pups (2-4 d old)
The test can be described thus: Cytosolic Calcium studies with astrocytes (astrocyte culture test, FLIPR). The class given is cell-based. Particulars: primary rat cortical astrocytes; L-quisqualate 100 nM; read-out: mGluR5_FLIPRr_rpA IC50. On the procedure:
Primary astrocyte cultures are prepared from cortices of newborn rats as described by Booher and Sensenbrenner (1972, Neurobiology 2(3):97-105). Briefly, Sprague-Dawley rat pups (2-4 d old) are decapitated and neocortices are dissected, disintegrated with a nylon filter (pore size 80 μm) and carefully triturated. The cell suspension is plated on poly-D-lysine pre-coated flasks (Costar, Netherlands) and cultivated in Dulbecco's Modified Eagle's Medium (DMEM, Invitrogen, Germany) supplemented with 10% foetal calf serum (FCS, Sigma, Germany), 4 mM glutamine and 50 μg/ml gentamycin (both Biochrom, Germany) at 37° C. in a humidified atmosphere of 5% CO2/95% air for 7 d with exchanging the medium at day 2 and 6.
After 7 days in vitro (DIV), cells are shaken overnight at 250 rpm to remove oligodendrocytes and microglia. The next day, astrocytes are rinsed twice with CMF-PBS (calcium- and magnesium-free phosphate buffered saline, Biochrom, Germany), trypsinized and subplated on poly-D-lysine pre-coated 96-well plates (Greiner, Germany) at a density of 40,000 cells/well. 24 h after establishing the secondary culture the astrocytes are rinsed with PBS^++ (phosphate buffered saline, Biochrom, Germany) and fed with astrocyte-defined medium (ADM) consisting of DMEM containing 1×G5-supplement (Invitrogen, Germany), 0.5 μg/ml heparan sulfate, and 1.5 μg/ml fibronectin (both Sigma, Germany) (Miller et al., (1993) Brain Res. 618(1):175-8). 3 d later the medium is exchanged and the cells incubated for another 2-3 d, so that at the time of experiments astrocytes are 14-15 DIV.
Cytosolic Calcium Studies with Astrocytes:
The increase of cytosolic calcium after stimulation with the mGluR5 agonist L-quisqualate is measured using a fluorometric imaging plate reader (FLIPR) and the Ca-Kit (both Molecular Devices). Prior to addition of agonist or antagonist the medium is aspirated and cells are loaded for 2 h at RT with 150 μl of loading buffer consisting of Ca-sensitive dye reconstituted in sodium chloride (123 mM), potassium chloride (5.4 mM), magnesium chloride (0.8 mM), calcium chloride (1.8 mM), D-glucose (15 mM), and HEPES (20 mM), pH 7.3. Subsequently, plates are transferred to FLIPR to detect calcium increase with the addition of L-quisqualate (100 nM) measured as relative fluorescence units (RFU). If antagonists are tested, these compounds are pre-incubated for 10 minutes at RT before addition of the respective agonist.
(§1) The fluorescence signal increase after addition of agonist reflects the increase of cytosolic calcium. Inconsistencies in the amount of cells per well are normalised by using the spatial uniformity correction of the FLIPR software. The mean of replicated temporal data (n=3-5) is calculated and used for graphical representation. For the evaluation of the pharmacology, the calcium changes in response to different concentrations of agonist or antagonist are determined using a maximum minus minimum (MaxMin) calculation.
(§2) All responses (RFU-values) are determined as percentage of control (=maximum response). EC50 and IC50 are calculated according the logistic equation using GraFit 5.0 (Erithacus Software, GB) or Prism 4.0 (GraphPad Software, USA). The compounds of the present invention have a potency (IC50) within a range of about […].

In test [1] the target is T2, transmembrane allosteric modulatory sites of mGluR5 receptors in cortical membranes (Rattus norvegicus, UniProt P31424).
T2 construct: from tissue; host or cells: cortex of male Sprague-Dawley rats, membrane preparation
Kind of test: [3H]-MMPEP binding assay in rat cortical membranes. Particulars: 3H-MMPEP radioligand, read-out: mGluR5_M_MPEP_r_CTX_IC50. On the procedure: Binding Assays for the Characterization of mGluR5 Antagonists
Preparation of Rat Cortical Membranes:
Male Sprague-Dawley rats (200-250 g) are decapitated and their brains are removed rapidly. The cortex is dissected and homogenized in 20 volumes of ice-cold 0.32 M sucrose using a glass-Teflon homogenizer. The homogenate is centrifuged at 1000×g for 10 minutes. The pellet is discarded and the supernatant centrifuged at 20,000×g for 20 minutes. The resulting pellet is re-suspended in 20 volumes of distilled water and centrifuged for 20 minutes at 8000×g. Then the supernatant and the buffy coat are centrifuged at 48,000×g for 20 minutes in the presence of 50 mM Tris-HCl, pH 8.0. The pellet is then re-suspended and centrifuged two to three more times at 48,000×g for 20 minutes in the presence of 50 mM Tris-HCl, pH 8.0. All centrifugation steps are carried out at 4° C. After resuspension in 5 volumes of 50 mM Tris-HCl, pH 8.0 the membrane suspension is frozen rapidly at −80° C.
On the day of assay the membranes are thawed and washed four times by resuspension in 50 mM Tris-HCl, pH 8.0 and centrifugation at 48,000×g for 20 minutes and finally re-suspended in 50 mM Tris-HCl, pH 7.4. The amount of protein in the final membrane preparation (500-700 μg/ml) is determined according to the method of Lowry (Lowry O. H. et al. 1951. J. Biol. Chem. 193, 256-275).
Incubations are started by adding[^3H]-MPEP (50.2 Ci/mmol, 5 nM, Tocris, GB) to vials with 125-250 μg protein (total volume 0.25 ml) and various concentrations of the agents.
Alternatively, assays are performed with [^3H]-MMPEP (2-(3-methoxyphenylethynyl)-6-methylpyridine hydrochloride) as radioligand. The incubations are continued at room temperature for 60 minutes (equilibrium is achieved under the conditions used). […] Incubations are terminated using a Millipore filter system. The samples are rinsed twice with 4 ml of ice-cold assay buffer over glass fibre filters (Schleicher & Schuell, Germany) under a constant vacuum. Following separation and rinse, the filters are placed into scintillation liquid (5 ml Ultima Gold, Perkin Elmer, Germany) and radioactivity retained on the filters is determined with a conventional liquid scintillation counter (Can berra Packard, Germany).

Test [2] addresses T3, metabotropic glutamate receptor (mGluR5) (Homo sapiens, UniProt P41594). The test can be described thus: Cytosolic Calcium studies with stably transfected cells (FLIPR, CHO-K1). The class given is cell-based. Further details: expressed in transfected cells; host or cells: CHO-K1 cells, IPTG-inducible expression. Particulars: CHO-K1 cells expressing human mGluR5; agonist L-quisqualic acid at ~80% of maximal signal; read-out: mGluR5_FLIPR_h_CHO_NAM IC50. On the procedure: Functional Assays of mGluR5 Receptors
Cytosolic Calcium studies with stably transfected cells:
Chinese hamster ovary cells (CHO-K1 cells), stably transfected for inducible expression of a human metabotropic glutamate receptor mGluR5, are seeded into black clear bottom 96 well plates at a density of 35.000 cells per well. The standard growth medium used (Dulbecco's modified Eagle Medium, DMEM plus L-proline) contains the appropriate inducer isopropyl-β-D-thiogalactopyranosid (IPTG) to achieve optimal receptor expression. One day after seeding the growth medium is exchanged for reconstituted Ca-Kit (Molecular Devices, USA) and incubated for one hour. Ca-Kit is reconstituted in an assay buffer containing 20 mM HEPES pH 7.4, glutamic-pyruvate transaminase, pyridoxal phosphate and sodium pyruvate in Hank's balanced salt solution (HBBS). Agonistic compounds to the receptor elicit increases in cytosolic calcium which can be measured as increases in fluorescence signals by use of a fluorescence imaging plate reader (Molecular Devices).
as §1, §2

In test [3] the target is T3, metabotropic glutamate receptor (mGluR5). Kind of test: Activity as mGluR5 modulator of prior-art compounds (test not described). Particulars: result in words.

T1 sequence (P31424 21-1203): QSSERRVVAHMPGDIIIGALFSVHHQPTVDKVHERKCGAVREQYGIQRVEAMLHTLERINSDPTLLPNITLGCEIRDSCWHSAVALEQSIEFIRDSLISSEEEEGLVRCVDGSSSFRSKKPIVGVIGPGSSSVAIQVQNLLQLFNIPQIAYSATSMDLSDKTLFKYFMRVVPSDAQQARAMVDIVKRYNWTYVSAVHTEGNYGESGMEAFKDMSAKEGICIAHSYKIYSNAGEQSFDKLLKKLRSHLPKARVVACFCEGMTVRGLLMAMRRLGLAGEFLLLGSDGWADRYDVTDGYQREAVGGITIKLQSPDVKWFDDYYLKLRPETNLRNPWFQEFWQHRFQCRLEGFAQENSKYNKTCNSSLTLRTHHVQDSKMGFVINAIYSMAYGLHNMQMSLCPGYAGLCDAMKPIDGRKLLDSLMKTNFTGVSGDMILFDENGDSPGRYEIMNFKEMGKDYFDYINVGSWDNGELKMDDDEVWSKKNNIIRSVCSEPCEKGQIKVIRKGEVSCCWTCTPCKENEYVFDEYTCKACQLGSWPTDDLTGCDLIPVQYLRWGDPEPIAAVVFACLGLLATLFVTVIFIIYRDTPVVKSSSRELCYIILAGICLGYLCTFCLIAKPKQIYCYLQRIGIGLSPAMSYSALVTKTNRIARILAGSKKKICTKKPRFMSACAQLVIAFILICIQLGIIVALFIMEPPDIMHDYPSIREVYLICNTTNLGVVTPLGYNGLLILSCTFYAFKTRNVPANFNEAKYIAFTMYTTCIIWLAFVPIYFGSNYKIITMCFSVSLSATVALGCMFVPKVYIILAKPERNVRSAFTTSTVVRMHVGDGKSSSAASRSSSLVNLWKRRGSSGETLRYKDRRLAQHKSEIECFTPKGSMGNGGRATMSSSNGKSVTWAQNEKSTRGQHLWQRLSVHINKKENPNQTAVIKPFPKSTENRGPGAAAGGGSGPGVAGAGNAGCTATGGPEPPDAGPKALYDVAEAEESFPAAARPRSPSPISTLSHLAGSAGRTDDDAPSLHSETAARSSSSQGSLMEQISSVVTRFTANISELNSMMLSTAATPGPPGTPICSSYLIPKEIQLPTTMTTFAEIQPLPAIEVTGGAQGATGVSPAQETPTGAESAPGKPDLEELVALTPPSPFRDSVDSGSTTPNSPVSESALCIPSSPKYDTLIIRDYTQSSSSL
T2 sequence (P31424 21-1203): as above
T3 sequence (P41594 21-1212): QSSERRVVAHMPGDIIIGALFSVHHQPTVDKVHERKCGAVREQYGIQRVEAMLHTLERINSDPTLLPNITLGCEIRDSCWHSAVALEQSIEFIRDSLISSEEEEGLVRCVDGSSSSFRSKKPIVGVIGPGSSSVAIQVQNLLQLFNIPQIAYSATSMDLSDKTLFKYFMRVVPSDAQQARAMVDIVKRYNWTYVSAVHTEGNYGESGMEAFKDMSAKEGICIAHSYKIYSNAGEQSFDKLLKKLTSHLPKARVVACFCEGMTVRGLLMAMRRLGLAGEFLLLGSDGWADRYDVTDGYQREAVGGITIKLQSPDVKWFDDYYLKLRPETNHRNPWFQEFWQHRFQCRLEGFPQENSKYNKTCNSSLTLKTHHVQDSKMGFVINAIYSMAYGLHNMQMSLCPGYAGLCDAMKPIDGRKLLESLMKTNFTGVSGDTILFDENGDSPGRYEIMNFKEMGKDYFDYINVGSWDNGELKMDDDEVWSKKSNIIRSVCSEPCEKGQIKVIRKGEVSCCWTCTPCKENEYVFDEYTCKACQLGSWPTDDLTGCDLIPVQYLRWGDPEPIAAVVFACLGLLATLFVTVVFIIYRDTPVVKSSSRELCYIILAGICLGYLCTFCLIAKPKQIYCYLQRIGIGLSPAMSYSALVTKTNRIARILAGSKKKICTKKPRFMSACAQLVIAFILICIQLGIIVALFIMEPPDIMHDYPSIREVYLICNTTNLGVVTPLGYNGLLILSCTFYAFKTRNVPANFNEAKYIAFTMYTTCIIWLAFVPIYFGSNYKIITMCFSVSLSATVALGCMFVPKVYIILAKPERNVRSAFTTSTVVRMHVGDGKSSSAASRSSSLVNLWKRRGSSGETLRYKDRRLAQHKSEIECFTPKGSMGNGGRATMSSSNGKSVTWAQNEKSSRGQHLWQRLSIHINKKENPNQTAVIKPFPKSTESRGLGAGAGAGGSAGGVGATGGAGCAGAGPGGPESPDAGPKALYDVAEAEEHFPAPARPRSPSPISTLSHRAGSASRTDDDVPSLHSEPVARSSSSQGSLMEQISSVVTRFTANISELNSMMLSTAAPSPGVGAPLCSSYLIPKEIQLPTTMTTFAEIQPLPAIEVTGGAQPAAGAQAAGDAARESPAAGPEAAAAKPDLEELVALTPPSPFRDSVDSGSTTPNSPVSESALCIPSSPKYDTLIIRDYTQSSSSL

For the compound `Cc1ccc2n1CCN(C(=O)c1cc3ncc(Br)cn3n1)[C@@H]2C` [(R)-(6-Bromo-pyrazolo[1,5-a]pyrimidin-2-yl)-(1,6-dimethyl-3,4-dihydro-1H-pyrrolo[1,2-a]pyrazin-2-yl)-methanone], the pIC50 is 7.46 at mGluR5 receptors, 7.13 in test [1] and 6.93 in test [2].
On to `C[C@@H]1c2ccc(Cl)n2CCN1C(=O)c1cc2ncc(Br)cn2n1` [(R)-(6-Bromo-pyrazolo[1,5-a]pyrimidin-2-yl)-(6-chloro-1-methyl-3,4-dihydro-1H-pyrrolo[1,2-a]pyrazin-2-yl)-methanone], for which the pIC50 on mGluR5 receptors was 8.11; in test [2] it was 7.61.
On to `Cc1ccc2n1CCN(C(=O)c1cc3ncc(Cl)cn3n1)C2C` (stereo not drawn) [Example 5, (6-Chloro-pyrazolo[1,5-a]pyrimidin-2-yl)-(1,6-dimethyl-3,4-dihydro-1H-pyrrolo[1,2-a]pyrazin-2-yl)-methanone], for which the figures for the pIC50 (on mGluR5 receptors; in test [1]; in test [2]) were 7.06, 6.56 and 6.49, respectively.
`Cc1ccc2n1CCN(C(=O)c1cc3ncc(Br)cn3n1)C2C` (stereo not drawn) [Example 7, (6-Bromo-pyrazolo[1,5-a]pyrimidin-2-yl)-(1,6-dimethyl-3,4-dihydro-1H-pyrrolo[1,2-a]pyrazin-2-yl)-methanone]: the pIC50 on mGluR5 receptors is 7.30; in test [1], 6.66; in test [2], 6.65.
As for `CC1c2ccc(Cl)n2CCN1C(=O)c1cc2ncc(Cl)cn2n1` (stereo not drawn) [Example 29, (6-Chloro-1-methyl-3,4-dihydro-1H-pyrrolo[1,2-a]pyrazin-2-yl)-(6-chloro-pyrazolo[1,5-a]pyrimidin-2-yl)-methanone], the pIC50 on mGluR5 receptors is 7.66; in test [1] it was 7.38; in test [2], 7.04.
On to `CC1c2ccc(Cl)n2CCN1C(=O)c1cc2ncc(Br)cn2n1` (stereo not drawn) [Example 31, (6-Chloro-1-methyl-3,4-dihydro-1H-pyrrolo[1,2-a]pyrazin-2-yl)-(6-bromo-pyrazolo[1,5-a]pyrimidin-2-yl)-methanone], for which the pIC50 is 7.65 at mGluR5 receptors, 7.35 in test [1] and 7.07 in test [2].
As for `CC1c2ccc(Br)n2CCN1C(=O)c1cc2ncc(Cl)cn2n1` (stereo not drawn) [Example 37, (6-Bromo-1-methyl-3,4-dihydro-1H-pyrrolo[1,2-a]pyrazin-2-yl)-(6-chloro-pyrazolo[1,5-a]pyrimidin-2-yl)-methanone], the pIC50 at mGluR5 receptors was 7.77; in test [1] it was 7.14; in test [2] it was 7.47.
Take `CC1c2ccc(Br)n2CCN1C(=O)c1cc2ncc(Br)cn2n1` (stereo not drawn) [Example 39, (6-Bromo-1-methyl-3,4-dihydro-1H-pyrrolo[1,2-a]pyrazin-2-yl)-(6-bromo-pyrazolo[1,5-a]pyrimidin-2-yl)-methanone]: the pIC50 at mGluR5 receptors was 7.82; in test [1], 7.26; in test [2], 7.13.
The like results for `CN1c2ccccc2CCN1C(=O)c1cc2ncc(Cl)cn2n1` [Example 181, (6-Chloro-pyrazolo[1,5-a]pyrimidin-2-yl)-(1-methyl-3,4-dihydro-1H-cinnolin-2-yl)-methanone] were, in that order, 7.08, 6.61 and 6.78.
With `CN1c2ccccc2CCN1C(=O)c1cc2ncc(Br)cn2n1` [Example 182, (6-Bromo-pyrazolo[1,5-a]pyrimidin-2-yl)-(1-methyl-3,4-dihydro-1H-cinnolin-2-yl)-methanone], the pIC50 at mGluR5 receptors is 7.20; in test [1], 6.55; in test [2], 6.72.
As to `O=C(c1cc2ncc(Br)cn2n1)N1CCCCC1` [Example B308, (6-Bromopyrazolo[1,5-a]pyrimidin-2-yl)-piperidin-1-yl-methanone], in test [3], the “activity as metabotropic glutamate receptor (mGluR5) modulator” value (shortened to “activity”) is listed as “no particular activity”.
Regarding `O=C(c1cc2ncc(Br)cn2n1)N1CCOCC1` [Example B310, (6-Bromopyrazolo[1,5-a]pyrimidin-2-yl)-morpholin-4-yl-methanone], in test [3], the “activity” value is given as “no particular activity”.
Regarding `O=C(c1cc2ncc(Br)cn2n1)N1CCc2ccccc2C1` [M, (6-Bromo-pyrazolo[1,5-a]pyrimidin-2-yl)-(1,2,3,4-tetrahydro-isoquinolin-2-yl)-methanone], in test [3], the “activity” value was “only a limited activity” and the selectivity entry is on record as “not selective”.
